Data taken from US8974823B2, “Solid compositions of low-solubility drugs and poloxamers” (Bend Research, Inc., priority 2003, dated 2015).

How the values were obtained:
Format in all cases: physicochemical
[1] = glass transition temperature (Tg) of the drug; details: for Tg: Table B, unless noted Tg measured at less than 10% RH
Method: In a first aspect, the invention comprises a solid composition comprising a plurality of particles. The particles comprise a low-solubility drug and a poloxamer. The drug is in intimate contact with the poloxamer in the particles. Collectively, the drug and poloxamer constitute at least 50 wt % of the particles. At least a substantial portion of the drug in the composition is amorphous. The Tg of the drug is at least 50° C. Unless otherwise noted, as used herein the Tg refers to the Tg measured at less than 10% RH.
Such Tg values may represent that of drug dispersed in the amorphous portions of the poloxamer or the Tg of drug-rich phases or domains. […] The Tg of the drug may be at least about 60° C., at least about 70° C., or even at least about 80° C. The Tg of a drug can be determined using standard analytical techniques well known in the art, including by a dynamic mechanical analyzer (DMA), a dilatometer, a dielectric analyzer, and by differential scanning calorimetry (DSC).

[2] = in vitro dissolution test of Drug 1 compositions in Model Fasted Duodenal solution; details: for AUC: MFD solution; for AUC / Drug 1 Concentration: 2000 μg/mL if all dissolved; for Drug 1 Concentration: MFD solution pH 6.5, 37° C.
Method: (§1) The solid compositions of Examples 1-2 were evaluated in an in vitro dissolution test to ascertain concentration enhancement of Drug 1. A […] sample of each solid composition was added in duplicate to a microcentrifuge tube, so that the total concentration of Drug 1 would have been 2000 μg/mL if all of the drug had dissolved. The tubes were placed in a 37° C. temperature-controlled chamber, and 1.8 mL PBS containing 0.5 wt % sodium taurocholic acid and 1-palmitoyl-2-oleyl-sn-glycero-3-phosphocholine (NaTC/POPC, with a 4/1 weight ratio) at pH 6.5 and 290 mOsm/kg (simulating a Model Fasted Duodenal solution) was added to each respective tube. The samples were quickly mixed using a vortex mixer for about 60 seconds. The samples were centrifuged at 13,000 G at 37° C. for 1 minute. The resulting supernatant solution was then sampled and diluted 1:6 (by volume) with methanol and then analyzed by high-performance liquid chromatography (HPLC). The contents of each respective tube were mixed on a vortex mixer and allowed to stand undisturbed at 37° C. until the next sample was taken. Samples were collected at 4, 10, 20, 40, 90, and 1200 minutes.
As a control (C1), a sample of crystalline Drug 1 alone was tested in the same manner so that the concentration of Drug 1 in MFD solution would have been 2000 μg/mL if all of the drug had dissolved.
The concentrations of drug obtained in these samples were used to determine the maximum drug concentration (“MDC90”) and the area under the concentration-versus-time curve (“AUC90”) during the initial 90 minutes.

[3] = in vitro dissolution test of Drug 4 compositions in PBS; details: for AUC / Drug 4 Concentration: 1000 μg/mL if all dissolved; for Drug 4 Concentration: 37° C.
Method: as §1
The solid compositions of Examples 10-13 were evaluated in an in vitro dissolution test as in Examples 1-2, except that the dissolution medium was PBS. The amount of each composition added to the microcentrifuge tube was adjusted so that the concentration of Drug 4 in solution if all of the drug had dissolved was 1000 μg/mL.
The spray-dried compositions of Examples 14-15 were evaluated in an in vitro dissolution test as in Examples 10-13. The amount of each composition added to the microcentrifuge tube was adjusted so that the concentration of Drug 4 in solution if all of the drug had dissolved was […].
This composition was evaluated in an in vitro dissolution test as in Examples 10-13.

## O=C(N[C@@H](Cc1ccccc1)[C@@H](O)C(=O)N1C[C@@H](O)[C@@H](O)C1)c1cc2cc(Cl)ccc2[nH]1 [Drug 1, 5-chloro-1H-indole-2-carboxylic acid [(1S)-benzyl-(2R)-hydroxy-3-((3R,4S)-dihydroxy-pyrrolidin-1-yl-)-3-oxypropyl]amide]
[1]
  Tg: 96 °C
[1]; at ambient RH
  Tg,drug: 113 °C

## O=C(N[C@@H](Cc1ccccc1)[C@@H](O)C(=O)N1C[C@@H](O)[C@@H](O)C1)c1cc2cc(Cl)ccc2[nH]1 [Example C1, 5-chloro-1H-indole-2-carboxylic acid [(1S)-benzyl-(2R)-hydroxy-3-((3R,4S)-dihydroxy-pyrrolidin-1-yl-)-3-oxypropyl]amide]
[2]; Drug 1, MFD, initial 90 minutes
  AUC90: 21,600 min * μg/mL
[2]; Drug 1, MFD, maximum drug concentration during initial 90 minutes
  MDC90: 255 µg/mL
[2]; Drug 1, time 0 min
  AUC: 0 µg·min/mL
[2]; Drug 1, time 4 min
  AUC: 400 µg·min/mL
[2]; Drug 1, time 10 min
  AUC: 1700 µg·min/mL
[2]; Drug 1, time 20 min
  AUC: 4100 µg·min/mL
[2]; Drug 1, time 40 min
  AUC: 9000 µg·min/mL
[2]; Drug 1, time 90 min
  AUC: 21,600 min * μg/mL
[2]; Drug 1, time 1200 min
  AUC: 299,000 min * μg/mL
[2]; time 0 min
  Drug 1 Concentration: 0 µg/mL
[2]; time 4 min
  Drug 1 Concentration: 204 µg/mL
[2]; time 10 min
  Drug 1 Concentration: 227 µg/mL
[2]; time 20 min
  Drug 1 Concentration: 243 µg/mL
[2]; time 40 min
  Drug 1 Concentration: 250 µg/mL
[2]; time 90 min
  Drug 1 Concentration: 255 µg/mL
[2]; time 1200 min
  Drug 1 Concentration: 244 µg/mL

## Cl.Cl.O=C(O)COCCN1CCN(C(c2ccccc2)c2ccc(Cl)cc2)CC1 (stereo not drawn) [(2(-(4-((4-chlorophenyl)phenylmethyl)-1-piperazinyl)ethoxy)acetic acid, dihrochloride]
[1]
  Tg: 112 °C

## C[C@@H]1CC[C@@]2(OC1)O[C@H]1C[C@H]3[C@@H]4CC[C@H]5C[C@@H](O[C@@H]6O[C@H](CO)[C@@H](O[C@@H]7O[C@H](COC(=O)Nc8ccccc8F)[C@@H](OC(=O)Nc8ccccc8F)[C@H](O)[C@H]7O)[C@H](O)[C@H]6O)CC[C@]5(C)[C@H]4CC(=O)[C@]3(C)[C@H]1[C@@H]2C [3-[(4-O-{4,6-bis(2-flurophenylcarbamoyl)]-β-D-glucopyranolsyl-)β-D-flucopyranosyl]oxy-(3β,5α,25R)-spirostan-12-one]
[1]
  Tg: 143 °C

## CCOC(=O)N1c2ccc(C(F)(F)F)cc2[C@@H](N(Cc2cc(C(F)(F)F)cc(C(F)(F)F)c2)C(=O)OC)C[C@H]1CC [Control C6, Torcetrapib]
[3]; Drug 4, initial 90 minutes
  Cmax90: <1000 ng/mL
[3]; Drug 4, initial 90 minutes, Table 12
  AUC90: < 1470 ng·h/mL
[3]; Drug 4, initial 90 minutes, Table 15
  AUC90: <88 min-μg/mL
[3]; Drug 4, initial 90 minutes, Table 18
  AUC90: <1470 ng·h/mL
[3]; Drug 4, time 0 min
  AUC: 0 min-μg/mL
[3]; Drug 4, time 4 min
  AUC: <2 min-μg/mL
[3]; Drug 4, time 10 min
  AUC: <8 min-μg/mL
[3]; Drug 4, time 20 min
  AUC: <18 min-μg/mL
[3]; Drug 4, time 40 min
  AUC: <38 min-μg/mL
[3]; Drug 4, time 90 min
  AUC: <88 min-μg/mL
[3]; Drug 4, time 1200 min
  AUC: <1,200 min-μg/mL
[3]; time 0 min
  Drug 4 Concentration: 0 µg/mL
[3]; time 4 min
  Drug 4 Concentration: <1 µg/mL
[3]; time 10 min
  Drug 4 Concentration: <1 µg/mL
[3]; time 20 min
  Drug 4 Concentration: <1 µg/mL
[3]; time 40 min
  Drug 4 Concentration: <1 µg/mL
[3]; time 90 min
  Drug 4 Concentration: <1 µg/mL
[3]; time 1200 min
  Drug 4 Concentration: <1 µg/mL

## 4-[3-[4-(2-methylimidazol-1-yl) phenylthio] phenyl]-3,4,5,6-tetrahydro-2H-pyran-4-carboxamide hemifumarate
[1]
  Tg: 81 °C

## CC(C)c1c(C(=O)Nc2ccccc2)c(-c2ccccc2)c(-c2ccc(F)cc2)n1CCC(O)CC(O)CC(=O)[O-].CC(C)c1c(C(=O)Nc2ccccc2)c(-c2ccccc2)c(-c2ccc(F)cc2)n1CCC(O)CC(O)CC(=O)[O-].O.O.O.[Ca+2] (stereo not drawn) [2-(4-fluorophenyl)-beta, delta-dihydroxy-5-(1-methylethyl)-3-phenyl-4-[(phenylamino)carbonyl]-1H-pyrrole-1-heptanoic acid, calcium salt (2:1), trihydrate]
[1]
  Tg: 111 °C

## CCC(CC)Nc1cc(C)nc(Oc2c(C)cc(C)cc2C)c1C.Cl [[3,6-dimethyl-2-(2,4,6-trimethyl-phenoxy)-pyridin-4-yl]-(1-ethyl-propyl)-amine hydrochloride]
[1]
  Tg: 87 °C

## O=C(O)c1ccc(C(F)(F)F)cc1-c1ccc2c(c1)OCC(Cc1ccccc1)C2O (single isomer, unassigned; (+)) [(+)-2-(3-benzyl-4hydroxy-chroman-7-yl)-4-trifluoromethyl-benzoic acid]
[1]
  Tg: 53 °C

## O=C(NC(Cc1ccccc1)C(=O)N1CC(O)C1)c1cc2cc(Cl)ccc2[nH]1 (stereo not drawn) [5-chloro-1H-indole-2-carboxylic acid [(1)-benzyl-2-(3-hydroxy-azetidin-1-yl)-2-oxo-ethyl]-amide]
[1]
  Tg: 91 °C

## CON(C)C(=O)C(O)[C@H](Cc1ccccc1)NC(=O)c1cc2cc(Cl)ccc2[nH]1 (stereo in doubt) [[R—(R*,S*)]-5-chloro-N-[2-hydroxy-3-[(methoxymethylamino)-3-oxo-1-(phenylmethyl)propyl]propyl]-1H-indole-2-carboxamide]
[1]
  Tg: 80 °C

## O=C1Cc2cc(CCN3CCN(c4nsc5ccccc45)CC3)c(Cl)cc2N1 [Ziprasidone]
[1]
  Tg: 72 °C
